From patent US12077503B2, “Substituted cyclic amides and their use as herbicides” (FMC CORPORATION, priority 2015, dated 2024)

Columns and labels:
Assay type in all cases: in vivo
[1] = test system: sedge, umbrella (small-flower umbrella sedge, Cyperus difformis); assay: Test C flooded paddy test; conditions: Flood, 0 is no effect, 100 is complete control
How it was run: (§1)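 Rice, small-flower umbrella sedge, ducksalad and barnyardgrass at the 2-leaf stage were flooded to 3 cm, and compound was applied into the paddy water. After 13 to 15 d in a greenhouse, plants were rated visually against controls on a 0 (no effect) to 100 (complete control) scale.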

[2] = test system: ducksalad (Heteranthera limosa); assay: Test C flooded paddy test; conditions: Flood, 0 is no effect, 100 is complete control
How it was run: as §1

[3] = test system: barnyardgrass (Echinochloa crus-galli); assay: Test C flooded paddy test; conditions: Flood, 0 is no effect, 100 is complete control
How it was run: as §1

rice (Oryza sativa) = assay: Test C flooded paddy test; conditions: Flood, 0 is no effect, 100 is complete control
How it was run: as §1

[4] = test system: bluegrass (annual bluegrass, Poa annua); assay: Test D preemergence; conditions: scale 0 to 100
How it was run: (§2)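 Percent control (0–100) estimated by eye relative to untreated plants roughly 21 d after preemergence treatment of seeds in silt loam soil.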

[5] = test system: bromegrass, downy (downy bromegrass, Bromus tectorum); assay: Test D preemergence; conditions: scale 0 to 100
How it was run: as §2

[6] = test system: barley, spring (spring barley, Hordeum vulgare); assay: Test D preemergence; conditions: scale 0 to 100
How it was run: as §2

[7] = test system: pigweed (Amaranthus retroflexus); assay: Test D preemergence; conditions: scale 0 to 100
How it was run: as §2

[8] = test system: canarygrass (littleseed canarygrass, Phalaris minor); assay: Test D preemergence; conditions: scale 0 to 100
How it was run: as §2

[9] = test system: oat, wild (wild oat, Avena fatua); assay: Test D preemergence; conditions: scale 0 to 100
How it was run: as §2

[10] = test system: chickweed (common chickweed, Stellaria media); assay: Test D preemergence; conditions: scale 0 to 100
How it was run: as §2

[11] = test system: wheat, spring (spring wheat, Triticum aestivum); assay: Test D preemergence; conditions: scale 0 to 100
How it was run: as §2

[12] = test system: ryegrass, Italian (Italian ryegrass, Lolium multiflorum); assay: Test D preemergence; conditions: scale 0 to 100
How it was run: as §2

[13] = test system: windgrass (Apera spica-venti); assay: Test D preemergence; conditions: scale 0 to 100
How it was run: as §2

[14] = test system: lambsquarters (Chenopodium album); assay: Test D preemergence; conditions: scale 0 to 100
How it was run: as §2

[15] = test system: Galium (catchweed bedstraw, Galium aparine); assay: Test D preemergence; conditions: scale 0 to 100
How it was run: as §2

[16] = test system: Russian thistle (Salsola kali); assay: Test D preemergence; conditions: scale 0 to 100
How it was run: as §2

[17] = test system: chamomile (scentless chamomile, Matricaria inodora); assay: Test D preemergence; conditions: scale 0 to 100
How it was run: as §2

[18] = test system: field violet (Viola arvensis); assay: Test D preemergence; conditions: scale 0 to 100
How it was run: as §2

CN1CC(c2cccc(C(F)(F)F)c2)C(C(=O)Nc2ccccc2S(C)(=O)=O)C1=O (centres unmarked) [Compound 637]
Plant response rating (scale of 0 to 100), Sedge, Umbrella ([1]; 31 g ai/ha): 0 | Plant response rating (scale of 0 to 100), Sedge, Umbrella ([1]; 62 g ai/ha): 0 | Plant response rating (scale of 0 to 100), Sedge, Umbrella ([1]; 125 g ai/ha): 0 | Plant response rating (scale of 0 to 100), Sedge, Umbrella ([1]; 250 g ai/ha): 0 | Plant response rating (scale of 0 to 100), Ducksalad ([2]; 31 g ai/ha): 30 | Plant response rating (scale of 0 to 100), Ducksalad ([2]; 62 g ai/ha): 45 | Plant response rating (scale of 0 to 100), Ducksalad ([2]; 125 g ai/ha): 70 | Plant response rating (scale of 0 to 100), Ducksalad ([2]; 250 g ai/ha): 90 | Plant response rating (scale of 0 to 100), Barnyardgrass ([3]; 31 g ai/ha): 35 | Plant response rating (scale of 0 to 100), Barnyardgrass ([3]; 62 g ai/ha): 40 | Plant response rating (scale of 0 to 100), Barnyardgrass ([3]; 125 g ai/ha): 60 | Plant response rating (scale of 0 to 100), Barnyardgrass ([3]; 250 g ai/ha): 75 | Plant response rating (scale of 0 to 100), Rice (rice (Oryza sativa); 31 g ai/ha): 15 | Plant response rating (scale of 0 to 100), Rice (rice (Oryza sativa); 62 g ai/ha): 15 | Plant response rating (scale of 0 to 100), Rice (rice (Oryza sativa); 125 g ai/ha): 15 | Plant response rating (scale of 0 to 100), Rice (rice (Oryza sativa); 250 g ai/ha): 45 | Plant response rating: Bluegrass ([4]; 31 g ai/ha): 5 | Plant response rating: Bluegrass ([4]; 62 g ai/ha): 25 | Plant response rating: Bluegrass ([4]; 125 g ai/ha): 75 | Plant response rating: Bluegrass ([4]; 250 g ai/ha): 100 | Plant response rating: Bromegrass, Downy ([5]; 31 g ai/ha): 0 | Plant response rating: Bromegrass, Downy ([5]; 62 g ai/ha): 10 | Plant response rating: Bromegrass, Downy ([5]; 125 g ai/ha): 25 | Plant response rating: Bromegrass, Downy ([5]; 250 g ai/ha): 40 | Plant response rating: Barley, Spring ([6]; 31 g ai/ha): 0 | Plant response rating: Barley, Spring ([6]; 62 g ai/ha): 20 | Plant response rating: Barley, Spring ([6]; 125 g ai/ha): 40 | Plant response rating: Barley, Spring ([6]; 250 g ai/ha): 70 | Plant response rating: Pigweed ([7]; 31 g ai/ha): 20 | Plant response rating: Pigweed ([7]; 62 g ai/ha): 90 | Plant response rating: Pigweed ([7]; 125 g ai/ha): 100 | Plant response rating: Pigweed ([7]; 250 g ai/ha): 98 | Plant response rating: Canarygrass ([8]; 31 g ai/ha): 0 | Plant response rating: Canarygrass ([8]; 62 g ai/ha): 0 | Plant response rating: Canarygrass ([8]; 125 g ai/ha): 50 | Plant response rating: Canarygrass ([8]; 250 g ai/ha): 70 | Plant response rating: Oat, Wild ([9]; 31 g ai/ha): 20 | Plant response rating: Oat, Wild ([9]; 62 g ai/ha): 30 | Plant response rating: Oat, Wild ([9]; 125 g ai/ha): 75 | Plant response rating: Oat, Wild ([9]; 250 g ai/ha): 85 | Plant response rating: Chickweed ([10]; 31 g ai/ha): 0 | Plant response rating: Chickweed ([10]; 62 g ai/ha): 5 | Plant response rating: Chickweed ([10]; 125 g ai/ha): 65 | Plant response rating: Chickweed ([10]; 250 g ai/ha): 75 | Plant response rating: Wheat, Spring ([11]; 31 g ai/ha): 5 | Plant response rating: Wheat, Spring ([11]; 62 g ai/ha): 30 | Plant response rating: Wheat, Spring ([11]; 125 g ai/ha): 80 | Plant response rating: Wheat, Spring ([11]; 250 g ai/ha): 70 | Plant response rating: Ryegrass, Italian ([12]; 31 g ai/ha): 0 | Plant response rating: Ryegrass, Italian ([12]; 62 g ai/ha): 0 | Plant response rating: Ryegrass, Italian ([12]; 125 g ai/ha): 20 | Plant response rating: Ryegrass, Italian ([12]; 250 g ai/ha): 20 | Plant response rating: Windgrass ([13]; 31 g ai/ha): 10 | Plant response rating: Windgrass ([13]; 62 g ai/ha): 25 | Plant response rating: Windgrass ([13]; 125 g ai/ha): 85 | Plant response rating: Windgrass ([13]; 250 g ai/ha): 95 | Plant response rating: Lambsquarters ([14]; 31 g ai/ha): 50 | Plant response rating: Lambsquarters ([14]; 62 g ai/ha): 60 | Plant response rating: Lambsquarters ([14]; 125 g ai/ha): 40 | Plant response rating: Lambsquarters ([14]; 250 g ai/ha): 75 | Plant response rating: Galium ([15]; 31 g ai/ha): 0 | Plant response rating: Galium ([15]; 62 g ai/ha): 20 | Plant response rating: Galium ([15]; 125 g ai/ha): 30 | Plant response rating: Galium ([15]; 250 g ai/ha): 10 | Plant response rating: Russian Thistle ([16]; 31 g ai/ha): 0 | Plant response rating: Russian Thistle ([16]; 62 g ai/ha): 0 | Plant response rating: Russian Thistle ([16]; 125 g ai/ha): 10 | Plant response rating: Russian Thistle ([16]; 250 g ai/ha): 50 | Plant response rating: Chamomile ([17]; 31 g ai/ha): 0 | Plant response rating: Chamomile ([17]; 125 g ai/ha): 90 | Plant response rating: Chamomile ([17]; 250 g ai/ha): 90 | Plant response rating: Field Violet ([18]; 31 g ai/ha): 0 | Plant response rating: Field Violet ([18]; 62 g ai/ha): 0 | Plant response rating: Field Violet ([18]; 125 g ai/ha): 0 | Plant response rating: Field Violet ([18]; 250 g ai/ha): 0

CN1CC(c2ccc(C(F)(F)F)cc2)C(C(=O)Nc2ccccc2S(C)(=O)=O)C1=O (centres unmarked) [Compound 624]
Plant response rating: Bluegrass ([4]; 31 g ai/ha): 10 | Plant response rating: Bluegrass ([4]; 62 g ai/ha): 25 | Plant response rating: Bluegrass ([4]; 125 g ai/ha): 55 | Plant response rating: Bluegrass ([4]; 250 g ai/ha): 65 | Plant response rating: Bromegrass, Downy ([5]; 31 g ai/ha): 0 | Plant response rating: Bromegrass, Downy ([5]; 62 g ai/ha): 10 | Plant response rating: Bromegrass, Downy ([5]; 125 g ai/ha): 20 | Plant response rating: Bromegrass, Downy ([5]; 250 g ai/ha): 20 | Plant response rating: Barley, Spring ([6]; 31 g ai/ha): 0 | Plant response rating: Barley, Spring ([6]; 62 g ai/ha): 0 | Plant response rating: Barley, Spring ([6]; 125 g ai/ha): 5 | Plant response rating: Barley, Spring ([6]; 250 g ai/ha): 40 | Plant response rating: Pigweed ([7]; 31 g ai/ha): 35 | Plant response rating: Pigweed ([7]; 62 g ai/ha): 80 | Plant response rating: Pigweed ([7]; 125 g ai/ha): 95 | Plant response rating: Pigweed ([7]; 250 g ai/ha): 98 | Plant response rating: Canarygrass ([8]; 31 g ai/ha): 0 | Plant response rating: Canarygrass ([8]; 62 g ai/ha): 15 | Plant response rating: Canarygrass ([8]; 125 g ai/ha): 25 | Plant response rating: Canarygrass ([8]; 250 g ai/ha): 45 | Plant response rating: Oat, Wild ([9]; 31 g ai/ha): 0 | Plant response rating: Oat, Wild ([9]; 62 g ai/ha): 5 | Plant response rating: Oat, Wild ([9]; 125 g ai/ha): 15 | Plant response rating: Oat, Wild ([9]; 250 g ai/ha): 35 | Plant response rating: Chickweed ([10]; 31 g ai/ha): 15 | Plant response rating: Chickweed ([10]; 125 g ai/ha): 60 | Plant response rating: Chickweed ([10]; 250 g ai/ha): 85 | Plant response rating: Wheat, Spring ([11]; 31 g ai/ha): 5 | Plant response rating: Wheat, Spring ([11]; 62 g ai/ha): 10 | Plant response rating: Wheat, Spring ([11]; 125 g ai/ha): 15 | Plant response rating: Wheat, Spring ([11]; 250 g ai/ha): 40 | Plant response rating: Ryegrass, Italian ([12]; 31 g ai/ha): 0 | Plant response rating: Ryegrass, Italian ([12]; 62 g ai/ha): 0 | Plant response rating: Ryegrass, Italian ([12]; 125 g ai/ha): 25 | Plant response rating: Ryegrass, Italian ([12]; 250 g ai/ha): 25 | Plant response rating: Windgrass ([13]; 31 g ai/ha): 15 | Plant response rating: Windgrass ([13]; 62 g ai/ha): 25 | Plant response rating: Windgrass ([13]; 125 g ai/ha): 85 | Plant response rating: Windgrass ([13]; 250 g ai/ha): 95 | Plant response rating: Lambsquarters ([14]; 31 g ai/ha): 0 | Plant response rating: Lambsquarters ([14]; 62 g ai/ha): 70 | Plant response rating: Lambsquarters ([14]; 125 g ai/ha): 35 | Plant response rating: Lambsquarters ([14]; 250 g ai/ha): 60 | Plant response rating: Galium ([15]; 31 g ai/ha): 0 | Plant response rating: Galium ([15]; 62 g ai/ha): 0 | Plant response rating: Galium ([15]; 125 g ai/ha): 0 | Plant response rating: Galium ([15]; 250 g ai/ha): 0 | Plant response rating: Russian Thistle ([16]; 31 g ai/ha): 0 | Plant response rating: Russian Thistle ([16]; 62 g ai/ha): 30 | Plant response rating: Russian Thistle ([16]; 125 g ai/ha): 10 | Plant response rating: Russian Thistle ([16]; 250 g ai/ha): 50 | Plant response rating: Chamomile ([17]; 31 g ai/ha): 0 | Plant response rating: Chamomile ([17]; 62 g ai/ha): 95 | Plant response rating: Chamomile ([17]; 125 g ai/ha): 90 | Plant response rating: Chamomile ([17]; 250 g ai/ha): 100 | Plant response rating: Field Violet ([18]; 31 g ai/ha): 10 | Plant response rating: Field Violet ([18]; 62 g ai/ha): 10 | Plant response rating: Field Violet ([18]; 125 g ai/ha): 10 | Plant response rating: Field Violet ([18]; 250 g ai/ha): 10
